Source: patent US12150940B2, “WASp-protecting small molecules, compositions, methods and uses thereof in the treatment of innate and acquired immune-related disorders or conditions” (BAR ILAN UNIVERSITY, priority 2016, dated 2024)

How the values were obtained:
WASp = molecular target: T1, WASp (Homo sapiens, UniProt P42768); assay: WASp ubiquitylation in PBMCs (immunoprecipitation, anti-ubiquitin blot); assay type: cell-based; conditions: vs activated negative control cells
T1 construct: endogenous in cells; host or cells: primary human platelets from healthy donors
T1 sequence (P42768 1-502): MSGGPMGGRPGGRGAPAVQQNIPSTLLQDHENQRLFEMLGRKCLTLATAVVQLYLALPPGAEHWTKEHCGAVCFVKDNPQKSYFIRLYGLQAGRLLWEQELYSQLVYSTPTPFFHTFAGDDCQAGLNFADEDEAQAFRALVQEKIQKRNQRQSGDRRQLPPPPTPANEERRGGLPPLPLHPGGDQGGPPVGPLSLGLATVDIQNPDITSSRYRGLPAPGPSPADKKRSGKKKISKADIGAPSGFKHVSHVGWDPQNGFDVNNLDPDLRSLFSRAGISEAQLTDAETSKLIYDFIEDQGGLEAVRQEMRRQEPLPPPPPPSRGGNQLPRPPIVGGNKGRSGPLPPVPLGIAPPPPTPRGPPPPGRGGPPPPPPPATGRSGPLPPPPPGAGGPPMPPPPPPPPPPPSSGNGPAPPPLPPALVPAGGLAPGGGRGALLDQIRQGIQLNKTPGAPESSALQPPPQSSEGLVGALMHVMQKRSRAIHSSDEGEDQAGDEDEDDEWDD
Method: FIGS. 12C and 12D. show freshly-isolated PBMCs that were either co-stimulated (+) with anti-CD3 and anti-CD28 or unstimulated (−). The PBMCs were pre-incubated at 37° C. for 15 min with either DMSO or the indicated WASp-binding SMCs (FIG. 12C—SMC #6; FIG. 12D—SMC #33), followed by lysis. WASp ubiquitylation was determined by immunoprecipitation as in FIG. 12A-12B. Ubiquitylated WASp appears as a smear of bands above the MW of 65 kDa with a prominent band at […]. Blots are representative of three independent experiments.
Immunoprecipitations and western blotting analysis were performed as previously described (Reicher et al, 2012). Briefly, platelets (2×10^8 cells per sample) were lysed by the addition of an equal volume of 2× lysis buffer (30 mM HEPES pH7.4, 300 mM NaCl, 2 mM phenylmethyl sulfonyl fluoride (PMSF), 2 mM sodium orthovanadate, 2% Triton X-100 and complete protease inhibitor tablets (Roche)). MEG-01 cells (2×10^7 cells per sample) were lysed in 1.25× lysis buffer. Proteasome activity was blocked by addition of MG132 (AdooQ) to platelets and Meg-01 cell medium at final concentration of 10 μM, for 1 h before the cells were harvested. Densitometric analysis of band intensities was performed with ImageJ software, with final results normalized with WASp or GAPDH as loading controls for immunoprecipitated samples and whole-cell lysates, respectively. […]

[1] = tested on: WAS−/−/WASp R86C Jurkat T-cells; assay: Lymphocyte migration on ICAM-1/SDF-1α, WAS−/−/WASp R86C cells; assay type: cell-based, human
Method: (§1) WASp knockout Jurkat T-cell lines that express only exogenous YFP-WASp R86C (WAS^−/−/WASp R86C) or Y107C (WAS^−/−/WASp Y107C) were pretreated with SMC #34 in comparison to cells treated with the control. Cells that completely lack WASp expression (WAS^−/−) were also treated with the control. Cellular migration was tracked over a 20-min period on ICAM-1/SDF-1α-coated cover glasses, as described in Experimental procedures.
(§2) Approximately 1×10^5 lymphocytes were seeded over chambered coverslips (LabTek) pre-coated with 6 μg/ml ICAM-1 and 2 μg/ml SDF-1α. Cells were incubated at 37° C., 5% CO2 and DIC images were acquired with the Zeiss Observer Z1 inverted microscope every 5 s for 20 min under a 20× objective lens using Zen software. The random movement (Displacement and velocity) of the cells was automatically tracked and analyzed using TrackMate plugin of ImageJ software. An individual trace was assigned to each of the analyzed cells.

WAS−/− Jurkat T-cells [2] = assay: Lymphocyte activation (CD69, flow cytometry), WAS−/− cells; assay type: cell-based, human
Method: 1×10^6 WASp knockout Jurkat T-cell line that expresses only exogenous YFP-WASp harboring the common human WAS and XLT mutation, R86C (WAS−/−/WASp R86C) was pretreated with either negative control or SMC #34. Cells that completely lack WASp expression (WAS^−/−) were also treated with the control. The cells were then stimulated with PMA and Ionomycin. After incubation, the cells were stained with PE-Cy5™-conjugated mouse anti-human CD69 and lymphocyte activation was measured by flow cytometry as described in Experimental procedures. Histogram of negative control versus SMC #34 is presented.
PBMCs or Jurkat cells (about 3×10^5 cells) were incubated for 4 h, at 37° C. with 50 ng/ml PMA and 250 ng/ml lonomycin, or 40 ng/ml PMA and 6 μM Ionomycin, respectively, or left untreated. After incubation, the cells were collected and stained with 1 μg/ml anti-active human LFA-1 antibody (purified from KIM127 hybridoma sup, ATCC Cat #: CRL-2838, Sigma) for 30 min in 37° C., followed by staining with Alexa488-Fluor goat anti-mouse IgG1 secondary antibody (Molecular Probes, Cat #: A-21121), 30 min on ice. Cells were then co-stained with PE-Cy5™-conjugated mouse anti-human CD69 (BD Pharmingen, Cat #: 555532) to measure lymphocyte activation.

WAS−/− Jurkat T-cells [3] = assay: Lymphocyte migration on ICAM-1/SDF-1α, WAS−/− cells; assay type: cell-based, human
Method: as §1, §2

ubiquitylation of WASp in active lymphocytes (WASp)	Structure (SMILES)	migration ([1]; WAS−/−/WASp R86C cells, vs control)	mean cell displacement ([1]; WAS−/−/WASp R86C, 20 min, mean ± SE)	lymphocyte activation (CD69) (WAS−/− Jurkat T-cells [2])	migration (WAS−/− Jurkat T-cells [3])
downregulated	CC(=O)N[C@H]1C[C@@H](c2ccc3c(c2)nnn3C)O[C@@H](c2ccc(Cl)cc2)C1 [SMC #6, N-[(2R,4R,6S)-2-(4-chlorophenyl)-6-(1-methylbenzotriazol-5-yl)oxan-4-yl]acetamide]				
downregulated	Cc1ccccc1N(CC(=O)NCc1ccccc1)C(=O)CCC(=O)Nc1nccs1 [SMC #33, N′-[2-(benzylamino)-2-oxoethyl]-N′-(2-methylphenyl)-N-(1,3-thiazol-2-yl)butanediamide]				
	CC1CCCC(C)N1C(=O)CSc1nnc(COc2cccc3cccnc23)o1 (stereo not drawn) [SMC #34, 1-(2,6-dimethylpiperidin-1-yl)-2-[[5-(quinolin-8-yloxymethyl)-1,3,4-oxadiazol-2-yl]sulfanyl]ethanone]	significantly increased	53.65±4.88	restored the activation	completely restored the migration
